This assay addresses T1, S1P4 (Homo sapiens, UniProt O95977).
T1 construct: expressed in transfected cells
T1 sequence (O95977 1-384): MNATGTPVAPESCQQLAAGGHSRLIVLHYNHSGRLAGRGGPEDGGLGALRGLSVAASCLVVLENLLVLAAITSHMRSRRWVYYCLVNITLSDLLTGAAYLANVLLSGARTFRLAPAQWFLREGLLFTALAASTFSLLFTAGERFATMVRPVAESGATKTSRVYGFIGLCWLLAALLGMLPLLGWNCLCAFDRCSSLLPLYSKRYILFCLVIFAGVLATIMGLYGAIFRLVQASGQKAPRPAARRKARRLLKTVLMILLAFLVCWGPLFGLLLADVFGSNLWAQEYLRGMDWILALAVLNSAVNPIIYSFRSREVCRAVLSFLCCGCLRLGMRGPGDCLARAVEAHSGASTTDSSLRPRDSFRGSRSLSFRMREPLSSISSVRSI
The assay is described as follows: Calcium mobilization assay, CHO cells expressing S1P4. In kind it is cell-based. How it is done: An expression vector for the human S1P4 gene (HSEDG4; GenBank Accession Number AJ000479) fused to the c-myc peptide tag at the C-terminus is obtained as described in Van Brocklyn et al. 2000, Blood 95(8), 2624. The encoding DNA for the S1P4-myc fusion protein is cloned in the mammalian expression vector pRc/CMV (Invitrogen), which confers G418 resistance for the selection of stable mammalian cells. The DNA sequence of the S1P4 insert is determined on both strands. […] The S1P4-myc cDNA is inserted into the pRc/CMV vector using HindIII/XbaI.
To develop stable cell lines expressing the c-myc tagged S1P4 receptor 5 μg of plasmid pRc/CMV myc-S1P4 is cut using restriction endonuclease PvuI, which cleaves the plasmid once. The linearized plasmid is then precipitated using a final concentration of 0.3M sodium acetate, pH5.0 and 66% ethanol. […] Individual clones that grew after the sort and selection procedure are expanded and one clone is finally selected based on the level of S1P4 mRNA expression determined by TaqMan quantitative PCR analysis.
CHO cells are plated in black Costar plate (96 or 384 well, 50,000 cells or 12,500 cells, respectively) in a MEM with FCS and cultured for 20-24 h at 37° C. in a CO2 incubator. […] After measuring the baseline for 40 sec, the agonist in HBSS is added and the fluorescence is measured at intervals of 2 sec for 3 to 5 min. […]
A general note: Calcium flux is commonly read through the fluorescence of an indicator in the cells.

For orientation: EC50 means the concentration at which the effect is half-maximal. Turning to `NC(CNC(=O)c1cc2c(-c3ccccc3Cc3ccccc3)cccc2[nH]1)C(=O)O` (stereo not shown) [Example 2], the EC50 came to 10 nM.
